Data reported in ChEMBL document CHEMBL1146279 (Bioorg Med Chem Lett, 2007).

Target: T1, Tyrosine-protein kinase JAK3 (Homo sapiens, UniProt P52333)
T1 sequence (P52333 whole entry): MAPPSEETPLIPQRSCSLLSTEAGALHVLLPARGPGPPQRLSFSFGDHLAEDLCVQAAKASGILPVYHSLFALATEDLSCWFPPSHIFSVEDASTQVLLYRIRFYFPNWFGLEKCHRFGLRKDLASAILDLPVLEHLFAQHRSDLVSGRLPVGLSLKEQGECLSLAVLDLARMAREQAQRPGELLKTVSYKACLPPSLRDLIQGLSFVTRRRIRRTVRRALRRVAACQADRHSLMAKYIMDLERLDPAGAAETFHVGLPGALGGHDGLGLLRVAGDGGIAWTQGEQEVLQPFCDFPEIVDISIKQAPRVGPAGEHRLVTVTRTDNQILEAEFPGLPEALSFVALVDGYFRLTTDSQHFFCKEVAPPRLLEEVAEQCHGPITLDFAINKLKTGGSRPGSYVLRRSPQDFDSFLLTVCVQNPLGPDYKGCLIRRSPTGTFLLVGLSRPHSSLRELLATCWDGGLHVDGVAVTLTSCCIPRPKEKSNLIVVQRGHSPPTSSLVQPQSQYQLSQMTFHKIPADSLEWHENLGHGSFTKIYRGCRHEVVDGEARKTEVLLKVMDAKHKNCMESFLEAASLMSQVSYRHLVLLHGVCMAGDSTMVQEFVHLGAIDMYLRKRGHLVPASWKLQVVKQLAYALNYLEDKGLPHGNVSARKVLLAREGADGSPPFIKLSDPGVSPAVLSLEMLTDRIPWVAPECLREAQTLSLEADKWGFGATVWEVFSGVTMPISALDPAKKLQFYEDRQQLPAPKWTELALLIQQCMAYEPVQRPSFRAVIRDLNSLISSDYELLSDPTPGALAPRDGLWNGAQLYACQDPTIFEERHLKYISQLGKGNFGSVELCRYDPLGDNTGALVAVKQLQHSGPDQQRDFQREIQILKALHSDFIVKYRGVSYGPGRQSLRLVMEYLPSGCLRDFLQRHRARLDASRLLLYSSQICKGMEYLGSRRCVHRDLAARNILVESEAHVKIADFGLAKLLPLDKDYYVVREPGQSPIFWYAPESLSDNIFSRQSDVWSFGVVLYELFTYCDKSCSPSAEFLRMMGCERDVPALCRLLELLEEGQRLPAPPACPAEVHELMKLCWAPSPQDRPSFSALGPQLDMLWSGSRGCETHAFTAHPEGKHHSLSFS
Assay: Inhibition of JAK3 expressed in Sf21 cells

SMILES: O=Cc1ccc2c(c1)c1c3c(c4c5cc(Br)ccc5n5c4c1n2CC(CO)C5)C(=O)NC3 (stereo not given)
- IC50: 15 nM

SMILES: O=C1NCc2c1c1c3cc(CO)ccc3n3c1c1c2c2cc(CO)ccc2n1CC(CO)C3 (stereo not given)
- IC50: 14 nM

SMILES: CN(C)CCCNC(=O)/C=C/c1ccc2c(c1)c1c3c(c4c5ccccc5n5c4c1n2CC(CO)C5)CNC3=O (stereo not given)
- IC50: 237 nM

SMILES: O=C1NCc2c1c1c3ccccc3n3c1c1c2c2ccccc2n1CC(O)C3 (stereo not given)
- IC50: 142 nM

SMILES: O=C1NCc2c1c1c3ccccc3n3c1c1c2c2ccccc2n1CC(CO)(CO)C3
- IC50: 13.5 nM

SMILES: O=C1NCc2c1c1c3ccccc3n3c1c1c2c2ccccc2n1CC(=C(CO)CO)C3
- IC50: 36 nM

SMILES: O=C1NCc2c1c1c3ccccc3n3c1c1c2c2ccccc2n1CC(O)(CO)C3 (stereo not given)
- IC50: 27 nM

SMILES: CN(C)Cc1ccc2c(c1)c1c3c(c4c5ccccc5n5c4c1n2CC(CO)C5)C(=O)NC3 (stereo not given)
- IC50: 250 nM

SMILES: O=C1NCc2c1c1c3cc(/C=C/c4ccccn4)ccc3n3c1c1c2c2ccccc2n1CC(CO)C3 (stereo not given)
- IC50: 354 nM

SMILES: O=C1NCc2c1c1c3cc(/C=C/Cn4ccnc4)ccc3n3c1c1c2c2ccccc2n1CC(CO)C3 (stereo not given)
- IC50: 11 nM

SMILES: O=C1NCc2c1c1c3cc(/C=C/n4ccnc4)ccc3n3c1c1c2c2ccccc2n1CC(CO)C3 (stereo not given)
- IC50: 109 nM

SMILES: O=C1NCc2c1c1c3cc(CN4CCOCC4)ccc3n3c1c1c2c2cc(CN4CCOCC4)ccc2n1CC(CO)C3 (stereo not given)
- IC50: > 5000 nM

SMILES: O=C1NCc2c1c1c3ccccc3n3c1c1c2c2ccccc2n1CC(CO)C3 (stereo not given)
- IC50: 17.5 nM

SMILES: CC(C)OCc1ccc2c(c1)c1c3c(c4c5ccccc5n5c4c1n2CC(CO)C5)C(=O)NC3 (stereo not given)
- IC50: 80 nM

SMILES: O=C1NCc2c1c1c3cc(Br)ccc3n3c1c1c2c2ccccc2n1CC(CO)C3 (stereo not given)
- IC50: 23.5 nM
